Structures can show the parent of a compound that is named as a salt. Where two headings read alike, the source gives them in different places.
What was measured:
[1] = biological target: α1-receptors ([3H]prazosin); assay: [3H]Prazosin binding (α1-receptors), rat cerebral cortices; conditions: rat cerebral cortex, 0.35 nM [3H]prazosin, 25° C., 30 min; read-out: [3H] prazosine IC50
Description: Rat cerebral cortices were homogenized in 50 volumes of original wet weight of ice-cold 50 mM Tris-HCl buffer pH 7.4. The homogenates were centrifuged at 48,000 × g for 10 minutes, and the pellets were resuspended in the same volume of ice-cold buffer, centrifuged and resuspended two more times. […] The incubations were terminated by rapid filtration through Whatman GF/B, filters using a Brandel cell harvester and the filters were washed with 3×3 ml of ice-cold buffer. The radioactivity retained on the filters was determined by liquid scintillation counting. Data analysis The inhibition of specific binding of the radioligands by the tested drugs was analyzed to estimate the IC50 value by using the non-linear curve-fitting program Allfit [A. De Lean et al., Am. J. Physiol.

[2] = in vivo; conditions: mouse
Description: 20-30 g b.w., were obtained from Charles River, Italy. Animals were housed with free access to food and water and maintained on forced light-dark cycle at 22°-24° C. until the day of experiments.
The acute toxicity of synthesized compounds was evaluated in female Albino Swiss mice after intraperitoneal and oral administration. Four logarithmic scaled doses of the compounds were dissolved or suspended in 0.5% Methocel and administered in a volume of 10 ml/kg to groups of 4 mice/dose. Mortality was recorded 7 days after the administration.

[3] = test system: dyastolic arterious pressure; assay: Hypotensive activity in the normotensed anesthetized rat; assay type: in vivo; conditions: iv, endovenous administration, read-out: DE25 (dose which induces a lowering of 25% of the dyastolic arterious pressure)
Description: (§1) Male Sprague Dawley rats (Crl: CD' BR) of 175-300 g b.w., male spontaneously hypertensive rats, Okamoto strain, female Albino Swiss mice [Crl:CD-1 (ICR) BR] 20-30 g b.w., were obtained from Charles River, Italy. Animals were housed with free access to food and water and maintained on forced light-dark cycle at 22°-24° C. until the day of experiments.
(§2) Evaluation of the antihypertensive activity in chateterized spontaneously hypertensive rat (SH) chronic awake and of the hypotensive activity in the normotensed anesthethized rat
Normotensed rats with were prepared surgically at the moment of the test, after anesthesia with pentobarbital. Suitable chateters were introduced in the left carotid artery and the right jugular vein. The arterious chateter end was connected to a pressure transductor which sends the signal to a polygraph preamplifier. About 30' before the administration the arterious pressure was monitored and the registration of the parameters was performed after the administration, at various time according to the test protocol.
For the endovenous administration the administered volum was 0.5-1 ml/Kg, while for the oral administration was 5 ml/Kg.
Evaluation of data: in so far as the espression of the results is concerned, the pressure data were reported as percentage of the variation in respect to the base values.

[4] = test system: dyastolic arterious pressure; assay: Antihypertensive activity in catheterized awake spontaneously hypertensive rat (SHR); assay type: in vivo; conditions: oral administration, read-out: DE25 (dose which induces a lowering of 25% of the dyastolic arterious pressure)
Description: as §1, §2
The SH rats are surgically prepared at least 24 hours before the test. The surgical operation was performed under neuroleptoanalgesia or barbituric anesthesia; the right carotid artery was exposed and a chateter suitable in dimensions and material was introducted in the vessel up to the aortic arch. […]
For endovenous administrations a second chateter similar to the one above described was introduced during the surgical operation into the left jugular vein and brought to the exterior as the arterious chateter. […] About 30' before administration the arterious pressure was monitored and the registration of the parameters was performed after administration at different times according to the test protocol. […]

[5] = biological target: T1, cloned α1A adrenoceptor (Bos taurus, UniProt P18130); assay: Radioligand binding, cloned α1A adrenoceptor (previously α1C) expressed in COS-7 cells; conditions: bovine brain α1A in COS-7 cells; mean of 2-4 experiments in triplicate, agreed within 10%
T1 construct: expressed in transfected cells; host or cells: COS-7 (transient)
T1 sequence (P18130 1-466): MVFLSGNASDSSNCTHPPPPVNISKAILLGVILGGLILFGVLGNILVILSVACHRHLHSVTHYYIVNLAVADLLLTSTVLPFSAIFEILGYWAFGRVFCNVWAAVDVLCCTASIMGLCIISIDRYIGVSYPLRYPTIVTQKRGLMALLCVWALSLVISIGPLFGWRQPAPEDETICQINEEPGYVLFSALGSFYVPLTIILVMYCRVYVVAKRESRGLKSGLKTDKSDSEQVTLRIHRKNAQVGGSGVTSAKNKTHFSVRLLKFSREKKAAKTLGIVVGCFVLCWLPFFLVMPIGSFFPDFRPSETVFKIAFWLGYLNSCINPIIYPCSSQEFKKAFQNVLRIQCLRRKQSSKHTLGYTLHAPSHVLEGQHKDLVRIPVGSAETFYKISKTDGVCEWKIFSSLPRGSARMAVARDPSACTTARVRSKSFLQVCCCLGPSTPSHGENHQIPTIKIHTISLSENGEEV
Description: (§3) Cloned animal α1 adrenoceptors
(§4) COS-7 cells were grown as monolayers in Dulbecco's modified Eagle's medium (DMEM), supplemented with 25 mM glucose, 10% bovine calf serum, 100 units/ml penicillin and 100 μg/ml streptomicyn sulfate.
(§5) Transfected cells from colture flask were washed two times with 5 ml phosphate buffered saline (PBS), scraped into 2 ml of 5 mM Tris-HCl, pH 7.4, containing 5 mM EDTA and 10 μM leupeptin, and lysed by sonication. The cell lysates were pelleted at 30000xg for 15 min at 4° C. and washed three times with 10 ml ice-cold 50 mM Tris-HCl, pH 7.4. Membranes were resuspended in 50 mM Tris-HCl, pH 7.4, containing 10 μM pargyline and 0.1% ascorbic acid, quickly frozen and stored at -70° C. until utilized.
(§6) Radioligand binding assays
Non-specific binding was determined in presence of 100 μM phentolamine. The reaction mixture was incubated for 30 min at 25° C. and then stopped by the addition of ice cold Tris-HCl buffer and rapid filtration through 0.2% polyethyleneimine pretreated Whatman GF/B fiber filters using Brandel cell harvester. The filters were then washed with 3×3 ml of ice-cold buffer and the radioactivity retained on the filters was counted in 10 ml of Filter Count (Packard) in a liquid scintillation spectrometer with a counting efficacy of 40%.
The inhibition of specific binding of the radioligands by the tested drugs was analyzed to estimate the IC50 value by using the non-linear curve-fitting program Allfit [A. De Lean et al., Am. J. Physiol.

[6] = biological target: T2, cloned α1B adrenoceptor (Mesocricetus auratus, UniProt P18841); assay: biochemical; assay type: binding; conditions: syrian hamster α1B in COS-7 cells; mean of 2-4 experiments in triplicate, agreed within 10%
T2 sequence (P18841 1-515): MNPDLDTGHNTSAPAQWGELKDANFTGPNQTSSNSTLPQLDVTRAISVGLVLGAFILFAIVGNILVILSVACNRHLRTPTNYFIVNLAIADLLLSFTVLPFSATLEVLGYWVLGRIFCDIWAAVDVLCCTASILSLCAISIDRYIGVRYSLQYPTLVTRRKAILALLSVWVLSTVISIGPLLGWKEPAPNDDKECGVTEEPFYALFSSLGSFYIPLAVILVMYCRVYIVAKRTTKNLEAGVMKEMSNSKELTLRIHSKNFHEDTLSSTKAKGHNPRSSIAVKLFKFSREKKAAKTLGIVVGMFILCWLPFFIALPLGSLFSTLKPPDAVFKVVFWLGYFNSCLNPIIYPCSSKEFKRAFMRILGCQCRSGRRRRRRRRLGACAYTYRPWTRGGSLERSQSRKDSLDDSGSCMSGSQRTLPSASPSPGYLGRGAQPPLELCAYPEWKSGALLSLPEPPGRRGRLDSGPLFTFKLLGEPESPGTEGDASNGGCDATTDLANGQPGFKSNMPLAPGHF
Description: as §3, §4, §5, §6
(§7) Non-specific binding was determined in presence of 100 μM phentolamine. […] The filters were then washed with 3×3 ml of ice-cold buffer and the radioactivity retained on the filters was counted in 10 ml of Filter Count (Packard) in a liquid scintillation spectrometer with a counting efficacy of 40%.
(§8) The inhibition of specific binding of the radioligands by the tested drugs was analyzed to estimate the IC50 value by using the non-linear curve-fitting program Allfit [A. De Lean et al., Am. […]

[7] = biological target: T3, cloned α1D adrenoceptor (Rattus norvegicus, UniProt P23944); assay: Radioligand binding, cloned α1D adrenoceptor (previously α1A/D) expressed in COS-7 cells; conditions: rat brain α1D in COS-7 cells; mean of 2-4 experiments in triplicate, agreed within 10%
T3 construct: expressed in transfected cells; host or cells: COS-7 (transient)
T3 sequence (P23944 1-561): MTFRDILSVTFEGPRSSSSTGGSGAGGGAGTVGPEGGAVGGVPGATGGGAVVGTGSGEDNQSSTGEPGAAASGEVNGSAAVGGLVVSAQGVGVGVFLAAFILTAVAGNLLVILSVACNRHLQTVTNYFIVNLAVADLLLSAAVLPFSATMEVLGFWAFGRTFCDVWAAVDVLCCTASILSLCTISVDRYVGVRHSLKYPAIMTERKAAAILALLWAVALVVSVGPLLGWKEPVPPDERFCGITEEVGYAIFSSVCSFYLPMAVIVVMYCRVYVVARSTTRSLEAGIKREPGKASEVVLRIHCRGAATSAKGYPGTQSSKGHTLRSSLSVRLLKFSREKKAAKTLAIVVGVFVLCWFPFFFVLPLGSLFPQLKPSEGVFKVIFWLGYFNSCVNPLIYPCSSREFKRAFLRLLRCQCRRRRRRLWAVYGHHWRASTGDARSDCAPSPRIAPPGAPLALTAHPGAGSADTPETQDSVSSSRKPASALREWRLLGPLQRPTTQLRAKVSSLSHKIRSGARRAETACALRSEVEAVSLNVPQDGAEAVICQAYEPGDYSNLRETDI
Description: as §3, §4, §5, §6, §7, §8

[8] = ip, mice, intraperitoneal, mortality 7 days after administration, read-out: DL50 i.p.
[9] = mice, oral, mortality 7 days after administration, read-out: DL50 p.o.

Row | SMILES | IC50 [1] | LD50 at 168 h [2, 8] | LD50 at 168 h [2, 9] | ED25 [3] | ED25 [4] | IC50 [5] | LD50 at 168 h ([2]; ip) | LD50 at 168 h ([2]; po) | IC50 [6] | IC50 [7]
1 | COc1cc2nc(N3CCN(C(=O)CC(=O)c4ccccc4)CC3)nc(N)c2cc1OC [Example 13, 4-Amino-6,7-dimethoxy-2-[4-(2-benzoylacetyl)-1-piperazinyl]-quinazoline] | 7 nM | 142 mg/kg | > 3000 mg/kg | 0.056 mg/kg | 2.42 mg/kg |  |  |  |  | 
2 | COc1cc2nc(N3CCN(C(=O)COc4c(OC)cccc4C(C)C)CC3)nc(N)c2cc1OC.Cl [Example 24, 4-Amino-6,7-dimethoxy-2-{4-[(2-methoxy-6-isopropylphenoxy)acetyl]-1-piperazinyl}-quinazoline hydrochloride] | 28 nM |  |  |  |  | 17.2 nM | 268 mg/kg | > 3000 mg/kg |  | 
3 | COc1cc2nc(N(C)CCCN3CCN(c4ccccc4OC)CC3)nc(N)c2cc1OC.Cl.Cl.O.O [Example 31, 4-Amino-6,7-dimethoxy-2-{N-methyl-N-{3-[4-(2-methoxyphenyl)-1-piperazinyl]propyl}amino}-quinazoline dihydrochloride dihydrate] | 12 nM | 70 mg/kg | > 2000 mg/kg |  |  |  |  |  |  | 
4 | COc1cc2nc(N3CCC(c4ccccc4)(c4ccccc4)CC3)nc(N)c2cc1OC [Example 32, 4-Amino-6,7-dimethoxy-2-(4,4-diphenyl-1-piperidinyl)-guinazoline hydrochloride . 0.65 H2 O] | 259 nM | > 500 mg/kg | > 2000 mg/kg |  |  |  |  |  |  | 
5 | COc1ccc(CC2c3cc(OC)c(OC)cc3CCN2c2nc(N)c3cc(OC)c(OC)cc3n2)cc1OC (centres unmarked) [Example 33, 4-Amino-6,7-dimethoxy-2-[1-(3,4-dimethoxybenzyl)-6,7-dimethoxy-1,2,3,4-tetrahydroisoguinolin-2-yl]-quinazoline hydrochloride hydrate] | 287 nM | 884 mg/kg | > 3000 mg/kg |  |  | 950 nM |  |  | 206 nM | 1550 nM
6 | COc1cc2nc(N3CCN(C(=O)C4CCCO4)CC3)nc(N)c2cc1OC (centres unmarked) [Terazosin, reference compound] |  |  |  |  |  | 66.6 nM |  |  |  | 106 nM
